In patent publication US20120156699A1, “Pathogenic TH17 Cells; related reagents and methods” (Schering Corporation, priority 2007, published 2012):

B1: IL-23: protein consisting of two polypeptide subunits, p19 and p40 (protein, UniProt Q9NPF7 20-189; P29460 23-328, looked up)
Interleukin-23 subunit alpha: RAVPGGSSPAWTQCQQLSQKLCTLAWSAHPLVGHMDLREEGDEETTNDVPHIQCGDGCDPQGLRDNSQFCLQRIHQGLIFYEKLLGSDIFTGEPSLLPDSPVGQLHASLLGLSQLLQPEGHHWETQQIPSLSPSQPWQRLLLRFKILRSLQAFVAVAARVFAHGAATLSP
Interleukin-12 subunit beta: IWELKKDVYVVELDWYPDAPGEMVVLTCDTPEEDGITWTLDQSSEVLGSGKTLTIQVKEFGDAGQYTCHKGGEVLSHSLLLLHKKEDGIWSTDILKDQKEPKNKTFLRCEAKNYSGRFTCWWLTTISTDLTFSVKSSRGSSDPQGVTCGAATLSAERVRGDNKEYEYSVECQEDSACPAAEESLPIEVMVDAVHKLKYENYTSSFFIRDIIKPDPPKNLQLKPLKNSRQVEVSWEYPDTWSTPHSYFSLTFCVQVQGKSKREKKDRVFTDKTSATVICRKNASISVRAQDRYYSSSWSEWASVPCS

Columns and labels:
IL-23R = IL-23R expression in naïve human CD4+ T cells, flow cytometry; type: cell-based; conditions: 10 μM PGE2, 10 μM butaprost, 35 μM misoprostol, 10 μM sulprostone; restimulated 48 hours; FIGS. 4A, 4B
Protocol: FIGS. 4A and 4B present results obtained in experiments in which naïve human CD4^+ T cells are activated with T cell activation beads and cultured in the presence or absence of PGE2 or specific EP receptors agonists.
(§1) Methods used in this example are generally as described at Wilson et al. (2007) Nature Immunology 8:950. More specifically, cell culture is performed as follows. Naïve CD4^+ CD45RO^− T cells are isolated and cultured as described previously (Wilson et al. (2007), supra). Memory CD4^+ CD45RA^− T cells are isolated using the memory T cell isolation kit, human (Miltenyi, Auburn, Calif.), according to the manufacturer's instructions. Where indicated, 50 ng/ml hIL-23, 50 ng/ml hIL-1β (R&D Systems, Minneapolis, Minn.), 10 μM PGE2 (Sigma, St. Louis, Mo.), 10 μM butaprost (EP2 selective agonist), 35 μM misoprostol (EP4, EP3>EP1>EP2 agonist), and/or 10 μM sulprostone (EP1, EP3 agonist, Cayman Chemical, Ann Arbor, Mich.) are added.
For analysis of cell surface proteins, cells are stained with anti-CD4, anti-CD3, anti-CD45RA, anti-CCR6 (BD Biosciences), and/or anti-IL-23R (R&D Systems) antibodies. Data are acquired on a LSR II cytometer and analyzed with FlowJo software (Tree Star, Ashland, Oreg.).
Further experiments are performed to determine the effect of PGE2, or agonists thereof, on the expression of IL-23R in naïve human CD4^+ T cells in culture. […]

naïve human CD4+ T cells = assay: Cytokine expression by naïve human CD4+ T cells cultured with IL-1β and IL-23, with or without PGE2 or EP receptor agonists; type: cell-based; conditions: together with IL-1β and IL-23
Protocol: FIGS. 5A, 5B and 5C present results obtained in naïve human CD4^+ T cells activated with T cell activation beads and cultured in the presence or absence of IL-23 and IL-1β, with or without PGE2 or the EP receptors agonists butaprost, misoprostol, and sulprostone. Data in FIGS. 5A-5C reflect IL-17A, IFN-γ and IL-10 production in cell-free supernatants of T cells restimulated for 48 hours, respectively. Results in each figure are representative of two independent experiments.
as §1
ELISA and electrochemiluminescence assays are performed as described previously (Wilson et al. (2007), supra). IL-10 ELISA is performed using a kit from R&D Systems. […]

CCR6 = CCR6 expression in naïve human CD4+ T cells, flow cytometry; type: cell-based; conditions: PGE2 added to IL-1β and IL-23; FIG. 6A
Protocol: FIGS. 6A, 6B and 6C present results obtained with naïve human CD4^+ T cells cultured as described with reference to FIGS. 5A-5C. […] Results represent mean±s.e.m. of nine independent experiments. For data presented in FIGS. 6B and 6C, naïve T cells are cultured in the presence of IL-1β, IL-23, and PGE2. After reactivation, CD4^+ CCR6^+ and CD4^+CCR6^− T cells are sorted and cultured for seven days in the presence of IL-2. […] Results in each of FIGS. 6B and 6C reflect the results of four independent experiments.
Methods used in this example are generally as described at Wilson et al. (2007) Nature Immunology 8:950. More specifically, cell culture is performed as follows. Naïve CD4^+ CD45RO^− T cells are isolated and cultured as described previously (Wilson et al. (2007), supra). Memory CD4^+ CD45RA^− T cells are isolated using the memory T cell isolation kit, human (Miltenyi, Auburn, Calif.), according to the manufacturer's instructions. […]
For analysis of cell surface proteins, cells are stained with anti-CD4, anti-CD3, anti-CD45RA, anti-CCR6 (BD Biosciences), and/or anti-IL-23R (R&D Systems) antibodies. Data are acquired on a LSR II cytometer and analyzed with FlowJo software (Tree Star, Ashland, Oreg.). […]

[1] = test system: human memory CD4+ T cells; assay: Cytokine production and gene expression in activated human memory CD4+ T cells; type: cell-based
Protocol: FIGS. 7A and 7B present results obtained with human memory CD4^+ T cells activated and cultured for three days in the presence of IL-23, IL-1β, and/or PGE2. […] Results from nine independent donors are shown. […] Results from four different donors are shown. Horizontal lines represent medians.
as §1
ELISA and electrochemiluminescence assays are performed as described previously (Wilson et al. (2007), supra). IL-10 ELISA is performed using a kit from R&D Systems.
(§2) Real-time quantitative PCR is performed as described previously (Wilson et al. (2007), supra).
Intervention with therapeutic agents, such as antagonists of the inflammatory cytokines and non-cytokine immunomodulators, might therefore be expected to be beneficial when administered both systemically and also when administered locally at (or near) the site of inflammation.

IL-1R1 = IL-1R1 gene expression in response to PGE2; type: cell-based, human; conditions: data not shown
Protocol: as §2
Further experiments are performed to determine the effect of PGE2, or agonists thereof, on the expression of IL-23R in naïve human CD4^+ T cells in culture. […] In addition, IL-1R1 gene expression is increased in response to PGE2 (data not shown).

CD161+ Thmem cells = assay: IL-17 production by lamina propria CD161+ Thmem cells cultured with IL-23; type: cell-based, human; conditions: CD161+ Thmem cells cultured in the presence of IL-23
Protocol: (§3) Colon and peripheral blood (PB) samples are obtained from Crohn's Disease patients. Lamina propria mononuclear cells (LPMC) are prepared from colon samples by dissociation of the epithelial layer of the mucosa, collagenase digestion of the lamina propria, and density gradient centrifugation. Peripheral blood mononuclear cells (PBMC) are isolated from PB by density gradient centrifugation and lysis of red blood cells.
Colon samples from CD patients contain approximately 20-fold more CD161^+ CD4^+ memory T cells, as determined by flow cytometry, than colon samples from normal subjects. FACS® flow cytometry purified lamina propria CD161^+ Thmem cells are found to produce 4 to 6-fold more IL-17 than CD161^− Thmem cells (as measured by ELISA) in both CD and normal samples.

PBMC CD161+ Thmem cells = assay: IL-17 production by PBMC CD161+ Thmem cells from CD patients cultured with IL-23; type: cell-based, human
Protocol: as §3
This Th17 phenotype is increased in Crohn's disease patients.

[2] = memory T cells cultured three days, FIG. 7A

Molecule | percentage of IL-23R expressing CD4+ T cells (IL-23R) | IL-17 expression (naïve human CD4+ T cells; FIG. 5A) | percentage of naïve human CD4+ T cells expressing CCR6 (CCR6) | IFN-γ levels [1, 2] | IL-10 levels [1, 2] | IL-17A levels [1, 2] | ROR-γt expression ([1]; real-time RT-PCR, FIG. 7B) | IL-1R1 gene expression (IL-1R1) | IL-10 expression (naïve human CD4+ T cells; FIG. 5C) | enhancement of IL-17 production (CD161+ Thmem cells) | IL-17 production (PBMC CD161+ Thmem cells)
CCCC1([C@H](O)C/C=C/[C@H]2[C@H](O)CC(=O)[C@@H]2CCCCCCC(=O)OC)CCC1 [butaprost] | more than doubles | somewhat greater increase in IL-17 expression than misoprostol |  |  |  |  |  |  |  |  | 
CCCCC[C@H](O)/C=C/[C@H]1[C@H](O)CC(=O)[C@@H]1C/C=C\CCCC(=O)O [PGE2, prostaglandin E2] | more than doubles |  | increase in the percentage | does not promote increased levels | does not promote increased levels | promotes increased levels | promotes increased levels of the IL-17A and expression of ROR-γt | increased | Downregulation |  | 
B1 |  |  |  |  |  |  |  |  |  | approximately 3 fold | increased IL-17 production
